pEC50: −log10 of the molar value. Where two headings read alike, the source gives them in different places.
Legend:
[1] = molecular target: T1, GIPR mutants (Homo sapiens, UniProt P48546, P195K); test: cAMP accumulation, single-point mutated GIPR; type: cell-based; settings: GIPR P195(2.72b)K, relative to WT; pEC50 and Emax N.D. (incomplete curve fits)
T1 construct: expressed in transfected cells; host or cells: HEK-293T
Method: (§1) HEK-293T cells were maintained at 37°C in 5% CO2 incubator and seeded onto 6-well cell […]
(§2) culture plates before transfection. After overnight culture, the cells were transiently transfected […]
(§3) with various constructs using Lipofectamine 2000 transfection reagent (Invitrogen). After 24 h, […]
(§4) the transfected cells were seeded onto 384-microtiter plates at a density of 3,000 cells per well […]
(§5) in stimulation buffer (HBSS supplemented with 5 mM HEPES, 0.1% (w/v) casein and 0.5 mM […]
(§6) 3-isobutyl-1-methylxanthine). Different concentrations of retatrutide in stimulation buffer were […]
(§7) added, and the stimulation lasted for 40 min. The reaction was stopped by addition of cAMP […]
(§8) detection buffer containing Eu-cAMP tracer and ULight-anti-cAMP. Plates were then incubated for […]
(§9) 60 min at RT. Time-resolved FRET signals were measured at 620 nm and 665 nm, respectively, by […]
(§10) an EnVision multilabel plate reader (PerkinElmer). Data were analyzed in GraphPad PRISM 9.5 […]
(§11) and all values were normalized to that of the wild-type (WT).
(§12) Supplementary Fig. 5 Effects of receptor mutation on retatrutide-induced cAMP […]
(§13) accumulation. a-c, Signaling profiles of GLP-1R (a), GIPR (b) and GCGR (c) mutants. cAMP […]
(§14) accumulation was measured in wild-type (WT) and single-point mutated GLP-1R, GIPR or […]
(§15) GCGR expressing HEK-293T cells. cAMP levels were normalized to the maximum response […]
(§16) of the WT and dose-response curves were analyzed using a three-parameter logistic equation.
(§17) Data were generated and graphed as means ± S.E.M. of at least three independent experiments performed in quadruplicate.
(§18) (1 picture or pasted object on this page, not shown here)
(§19) Supplementary Ta b l e S 5 Effects of the ligand-binding pocket residue mutation on retatrutide- […]
(§20) induced cAMP signaling at GLP-1R, GIPR or GCGR. […]
(§21) cAMP levels were normalized to the maximum response of the wild-type (WT) and dose-response […]
(§22) curves were analyzed using a three-parameter logistic equation to obtain pEC50 and Emax values. The […]
(§23) experiments were carried out independently at least three times. Data shown are means ± S.E.M. One- […]
(§24) way ANOVA was used to determine statistical difference. N.D., values that could not be determined due […]
(§25) to incomplete curve fits. *P< 0.05, **P< 0.01, ***P< 0.001 and ****P<0.0001.

[2] = molecular target: T2, GIPR mutants (Homo sapiens, UniProt P48546, R289A); test: cAMP accumulation, single-point mutated GIPR; type: cell-based; settings: GIPR R289(ECL2)A, HEK-293T, 40 min, TR-FRET, mean ± S.E.M., n at least 3
T2 construct: expressed in transfected cells; host or cells: HEK-293T
T2 sequence (P48546 22-466 R289A): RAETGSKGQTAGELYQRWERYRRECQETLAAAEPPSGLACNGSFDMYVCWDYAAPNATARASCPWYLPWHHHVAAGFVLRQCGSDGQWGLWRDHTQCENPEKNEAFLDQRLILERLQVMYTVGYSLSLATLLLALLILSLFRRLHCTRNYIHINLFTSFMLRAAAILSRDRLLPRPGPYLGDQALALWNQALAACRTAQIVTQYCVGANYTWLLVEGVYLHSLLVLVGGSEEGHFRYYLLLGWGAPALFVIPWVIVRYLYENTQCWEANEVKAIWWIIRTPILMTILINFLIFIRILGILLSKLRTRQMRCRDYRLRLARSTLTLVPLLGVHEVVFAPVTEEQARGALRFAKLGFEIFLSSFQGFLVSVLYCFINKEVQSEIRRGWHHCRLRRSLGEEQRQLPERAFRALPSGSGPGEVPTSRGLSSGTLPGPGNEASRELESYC
Method: as §1, §2, §3, §4, §5, §6, §7, §8, §9, §10, §11, §12, §13, §14, §15, §16, §17, §18, §19, §20, §21, §22, §23, §24, §25

[3] = molecular target: T3, GIPR mutants (Homo sapiens, UniProt P48546, E288T); test: cAMP accumulation, single-point mutated GIPR; type: cell-based; settings: GIPR E288(45.52b)T, HEK-293T, 40 min, TR-FRET, mean ± S.E.M., n at least 3
T3 construct: expressed in transfected cells; host or cells: HEK-293T
T3 sequence (P48546 22-466 E288T): as the sequence (P48546 22-466 R289A) above, with E267T, A268R counted along it
Method: as §1, §2, §3, §4, §5, §6, §7, §8, §9, §10, §11, §12, §13, §14, §15, §16, §17, §18, §19, §20, §21, §22, §23, §24, §25

[4] = molecular target: T4, GIPR mutants (Homo sapiens, UniProt P48546, E377A); test: cAMP accumulation, single-point mutated GIPR; type: cell-based
T4 construct: expressed in transfected cells; host or cells: HEK-293T
T4 sequence (P48546 22-466 E377A): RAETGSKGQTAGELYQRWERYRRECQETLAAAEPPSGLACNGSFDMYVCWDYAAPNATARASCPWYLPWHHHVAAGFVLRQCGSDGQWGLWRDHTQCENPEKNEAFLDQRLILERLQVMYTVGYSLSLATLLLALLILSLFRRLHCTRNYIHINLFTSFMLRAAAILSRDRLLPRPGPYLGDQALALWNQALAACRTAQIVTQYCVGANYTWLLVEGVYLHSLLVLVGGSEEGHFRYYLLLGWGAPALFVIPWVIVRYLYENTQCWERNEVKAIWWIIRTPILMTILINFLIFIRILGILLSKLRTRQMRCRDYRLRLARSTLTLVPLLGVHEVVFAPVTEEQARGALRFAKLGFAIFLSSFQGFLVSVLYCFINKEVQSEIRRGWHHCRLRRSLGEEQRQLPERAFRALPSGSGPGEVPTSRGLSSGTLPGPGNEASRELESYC
Method: as §1, §2, §3, §4, §5, §6, §7, §8, §9, §10, §11, §12, §13, §14, §15, §16, §17, §18, §19, §20, §21, §22, §23, §24, §25

[5] = molecular target: T5, GIPR mutants (Homo sapiens, UniProt P48546, Q285A); test: cAMP accumulation, single-point mutated GIPR; type: cell-based; settings: GIPR Q285(ECL2)A; HEK-293T, 40 min, TR-FRET; mean ± S.E.M., n at least 3
T5 construct: expressed in transfected cells; host or cells: HEK-293T
T5 sequence (P48546 22-466 Q285A): as the sequence (P48546 22-466 R289A) above, with Q264A, A268R counted along it
Method: as §1, §2, §3, §4, §5, §6, §7, §8, §9, §10, §11, §12, §13, §14, §15, §16, §17, §18, §19, §20, §21, §22, §23, §24, §25

[6] = test system: C57/Bl6 diet-induced obese (DIO) mice; settings: cited from earlier work
Source text: (§26) The most successful treatments currently available include glucagon-like peptide-1 (GLP-1) receptor agonists (GLP-1RAs), exemplified by semaglutide (approved in 2017, $19.9 billion sales in 2023)[3] and tirzepatide (approved in 2022, $5.3 billion sales in 2023)[4]. […] For humans, events were mild, such as 50 1 ascending (PMID: 4 months ...

[7] = cited from earlier work; for average weight loss: 12 mg dose group
Source text: as §26

[8] = C57/Bl6 DIO mice, ref Coskun T et al (supplement ref 17)
[9] = 12 mg, ref Jastreboff AM et al (supplement ref 19)
[10] = ref Rosenstock J et al (supplement ref 20)

T1 sequence (P48546 22-466 P195K): as the sequence (P48546 22-466 R289A) above, with P174K, A268R counted along it

CC[C@H](C)[C@H](NC(=O)[C@H](Cc1ccccc1)NC(=O)[C@H](C)NC(=O)C(C)(C)NC(=O)[C@H](CCC(N)=O)NC(=O)[C@H](C)NC(=O)[C@H](CCCCNC(=O)COCCOCCNC(=O)CC[C@H](NC(=O)CCCCCCCCCCCCCCCCCCC(=O)O)C(=O)O)NC(=O)[C@H](CCCCN)NC(=O)[C@H](CC(=O)O)NC(=O)[C@H](CC(C)C)NC(=O)[C@](C)(CC(C)C)NC(=O)[C@@H](NC(=O)[C@H](CO)NC(=O)[C@H](Cc1ccc(O)cc1)NC(=O)[C@H](CC(=O)O)NC(=O)[C@H](CO)NC(=O)[C@@H](NC(=O)[C@H](Cc1ccccc1)NC(=O)[C@@H](NC(=O)CNC(=O)[C@H](CCC(N)=O)NC(=O)C(C)(C)NC(=O)[C@@H](N)Cc1ccc(O)cc1)[C@@H](C)O)[C@@H](C)O)[C@@H](C)CC)C(=O)N[C@@H](CCC(=O)O)C(=O)N[C@@H](Cc1ccc(O)cc1)C(=O)N[C@@H](CC(C)C)C(=O)N[C@@H](CC(C)C)C(=O)N[C@@H](CCC(=O)O)C(=O)NCC(=O)NCC(=O)N1CCC[C@H]1C(=O)N[C@@H](CO)C(=O)N[C@@H](CO)C(=O)NCC(=O)N[C@@H](C)C(=O)N1CCC[C@H]1C(=O)N1CCC[C@H]1C(=O)N1CCC[C@H]1C(=O)N[C@@H](CO)C(N)=O [retatrutide]
change of GIPR-mediated cAMP accumulation by mutation [1]: markedly decreased | Emax ± S.E.M. (% WT) [2]: 98.56 ± 4.01 % WT | pEC50 ([2]; ***P < 0.001): 10.90 | Emax ± S.E.M. (% WT) [3]: 100.81 ± 2.93 % WT | pEC50 ([3]; **P < 0.01): 11.05 | decrease of cAMP signaling potency by mutation ([4]; GIPR E7.42bA (E377A), relative to WT): 71.6 fold | Emax ± S.E.M. (% WT) ([4]; GIPR E377(7.42b)A, HEK-293T, 40 min, TR-FRET, mean ± S.E.M., n at least 3): 99.83 ± 6.38 % WT | pEC50 ([4]; GIPR E377(7.42b)A, HEK-293T, 40 min, TR-FRET, mean ± S.E.M., n at least 3, ****P < 0.0001): 9.78 | pEC50 [5]: 11.76 | Emax ± S.E.M. (% WT) [5]: 100.34 ± 4.02 % WT | ED50, body weight reduction [6, 8]: 4.73 nmol/kg | body weight and calorie intake [6, 8]: dose-dependently reduced | body weight loss compared with tirzepatide ([6]; obese mice, due to an increased energy expenditure through GCGR activation): greater body weight losses in obese mice than tirzepatide | participants with weight reduction of 5% or more ([7]; 8 mg or 12 mg, ref Jastreboff AM et al (supplement ref 19)): All the participants | participants who lost 20% or more of baseline weight [7, 9]: nearly two thirds | participants who lost 25% or more of baseline weight [7, 9]: nearly half | participants who lost 30% or more of baseline weight [7, 9]: a quarter | average weight loss ([7]; 24 weeks): 17.5% | least-squares mean percentage change in body weight ([7]; 24 weeks, 12-mg group, placebo –1.6%, ref Jastreboff AM et al (supplement ref 19)): –17.5% | least-squares mean percentage change in body weight ([7]; 24 weeks, combined 4-mg group, placebo –1.6%, ref Jastreboff AM et al (supplement ref 19)): –12.9% | least-squares mean percentage change in body weight ([7]; 24 weeks, combined 8-mg group, placebo –1.6%, ref Jastreboff AM et al (supplement ref 19)): –17.3% | participants who lost at least 15% of body weight (up to) ([7]; 36 weeks, ref Rosenstock J et al (supplement ref 20)): Up to 63% | average weight loss ([7]; 48 weeks): 24.2% | least-squares mean percentage change in body weight ([7]; 48 weeks, 12-mg group, placebo –2.1%, ref Jastreboff AM et al (supplement ref 19)): –24.2% | least-squares mean percentage change in body weight ([7]; 48 weeks, combined 4-mg group, placebo –2.1%, ref Jastreboff AM et al (supplement ref 19)): –17.1% | least-squares mean percentage change in body weight ([7]; 48 weeks, combined 8-mg group, placebo –2.1%, ref Jastreboff AM et al (supplement ref 19)): –22.8% | blood pressure ([7]; dose-dependent, ref Rosenstock J et al (supplement ref 20)): reduction of blood pressure | frequency of gastrointestinal events by starting dose ([7]; in vivo): occurred more frequently | heart rate ([7]; in vivo): Dose-dependent increases | mitigation of gastrointestinal adverse events by lower starting dose ([7]; in vivo): partially mitigated | participants with gastrointestinal adverse events ([7]; in vivo): 35% | safety profile ([7]; in vivo): safety profile comparable to certain approved GLP-1RAs | severity of most common (gastrointestinal) adverse events ([7]; in vivo): mild to moderate in severity | glycemic control ([7]; phase 2, type 2 diabetes): significant improvements in glycemic control | weight reduction ([7]; phase 2, type 2 diabetes): substantial weight reduction | glycemic control [7, 10]: clinically improvements in glycemic control | non-HDL cholesterol [7, 10]: reduction | reduction of triglycerides [7, 10]: ~ 35%

From article PMC11255275, “Structural insights into the triple agonism at GLP-1R, GIPR and GCGR manifested by retatrutide” (Cell Discovery, 2024)
